Laboratory results published in US20220381790A1, “SELECTION AND BLOCKADE OF FERTILIZATION COMPETENT MALE AND FEMALE GAMETES” (University of Virginia Patent Foundation, priority 2019, published 2022).
Entries after “also recorded” stand apart in the source; their conditions may differ.

Experiments:
PtdSer exposed on sperm = assay: In vitro fertilization assay, masking PtdSer on sperm; format: cell-based, mouse; conditions: 2-cell embryos at 24 h
Procedure: In vitro fertilization (IVF) assays. IVF was performed as previously described^68. Briefly, 4-5 week old female mice were super-ovulated by intraperitoneal injections of 5 IU of pregnant mare serum gonadotropin (PMSG, Prospec) and 5 IU of human chorionic gonadotropin (hCG, Sigma) 48 hours (h) later. Metaphase II oocytes were recovered 13 h after hCG, and were: 1) directly used as cumulus oocyte complexes (COC), 2) freed from cumulus cells by a brief incubation with 3 mg/ml hyaluronidase (Sigma) in 0.01% poly vinyl alcohol (PVA)/FHM medium (EMD Millipore). These oocytes were labeled as Zona pellucida (ZP)-intact oocytes; or 3) freed from cumulus cells and ZP using Tyrode's solution (Sigma) (ZP-free oocytes). Sperm were collected from the cauda epididymides of adult (>10 week-old) wild-type male mice and capacitated for 90 min in TYH+BSA medium (described above, Sperm staining section). […]
To evaluate the role of PtdSer exposed on sperm, cumulus oocyte complexes (n=30-60) were inseminated with 2-4×10^4 sperm capacitated for 60-90 min in TYH+BSA (in most of the experiments) or in TYH+MBCD^67 (in the experiment to test the effect of Annexin V in fertilization, FIG. 1K). […] The percentage of 2-cell embryos (fertilized eggs) was determined at 24 hours post insemination. […] After washes and an overnight incubation the percentage of 2-cell embryos was evaluated.

sperm = assay: Sperm progressive motility; format: cell-based, mouse; conditions: for progressive motility of the sperm: 10 μg/ml Annexin V, 50 μg/ml GST or 50 μg/ml GST-BAI1-TSR
Procedure: To evaluate the role of PtdSer exposed on sperm, cumulus oocyte complexes (n=30-60) were inseminated with 2-4×10^4 sperm capacitated for 60-90 min in TYH+BSA (in most of the experiments) or in TYH+MBCD^67 (in the experiment to test the effect of Annexin V in fertilization, FIG. 1K). During the last 30 min of capacitation, sperm were incubated with 10 μg/ml Annexin V (Ebiosciences), 50 μg/ml GST or 50 μg/ml GST-BAI1-TSR. After co-culture of oocytes and sperm in 100 μl drops of high calcium human tubal fluid (HTF) supplemented with 1 mM reduced glutathione (GSH) medium for 4 hours^67, eggs were washed several times and transferred to KSOM medium (EMD Millipore). The percentage of 2-cell embryos (fertilized eggs) was determined at 24 hours post insemination. Sperm motility upon incubation with control medium, Annexin V, GST or GST-BAI1-TSR was graded as progressive motility, non-progressive motility, and immotility, according to the criteria of the 5th Edition of the World Health Organization (WHO) Laboratory Manual for the Examination and Processing of Human Semen. The non-progressive motility and immotility numbers were grouped together. To test the soluble head group of PtdSer, O-Phospho-L-Serine (Sigma) and its control O-Phospho-D-Serine (Sigma) in IVF assays, ˜20 ZP-free oocytes isolated from wt mice were incubated 1×10^3 capacitated sperm in 20-μl droplets for 1 h in the presence of 1 mM O-Phospho-L-Serine or O-Phospho-D-Serine. After washes and an overnight incubation the percentage of 2-cell embryos was evaluated.

[1] = system: ZP-free wild-type oocytes; assay: Binding of 2 μm carboxylate modified beads to oocytes; format: cell-based, mouse; conditions: beads pretreated with 50 μg/ml GST-BAI1-TSR for 30 min; oocytes with >5 bound beads scored
Procedure: The presence of functional PtdSer receptors on mouse ZP-free wild-type oocytes was evaluated by incubation with 2 μm carboxylate modified red (580/605) beads (1:400, Invitrogen, FluoSpheres) for 2 h in TYH+BSA at 37° C., 5% CO2. Beads were pre-treated with medium only, 50 μg/ml GST or 50 μg/ml GST-BAI1-TSR for 30 min. Oocytes were washed 6 times in TYH+BSA, stained with CD9 antibody for 30 min at 37° C., 5% CO2 in TYH+BSA, fixed in 4% PFA+1% BSA and stained with Hoechst. The percentage of oocytes with bound beads was determined by microscopy. We scored oocytes with >5 bound beads, since accurately counting individual beads, particularly in oocytes of the control groups that bound multiple beads was unfeasible.

C2C12 myoblasts = assay: Sperm:myoblast fusion assay; format: cell-based, mouse; conditions: 4 h co-culture; for sperm:myoblast fusion (Calcein-AM+ myoblasts): Calcein-AM labeled sperm, 50 μg/ml GST-BAI1-TSR on sperm, 80 μM EHT-1864, 5 μg/ml Cytochalasin D, 4% PFA; for DiI+ myoblasts (transfer of the dye DiI from the sperm to the myoblasts): DiI-labeled sperm
Procedure: To stain sperm with the dyes Calcein-AM or DiI, caudal sperm were allowed to swim in TYH+0.75 mM Methyl-beta-cyclodextrin (MBCD)^67 for 15 min, counted and stained with 4 μM Calcein red orange-AM (Invitrogen) for 30 min in PBS at room temperature or with 5 μg/ml DiI (Invitrogen) for 30 min at 37° C. in HBSS, as previously described^60. Cells were washed, counted and resuspended in DMEM medium supplemented with 20% heat inactivated FBS.
Sperm:myoblast fusion experiments. C2C12 murine skeletal muscle myoblasts (ATCC) were maintained at sub-confluent densities in DMEM medium supplemented with 20% heat inactivated FBS at 37° C., 8.5% CO2. Cells were trypsinized, counted and plated in 4-well LabTek II Permanox chamber slides (25,000 cells/well). After 24 h, myoblasts were treated with appropriate buffer alone, or 5 μg/ml Cytochalasin D (Sigma), 80 μM RAC1 inhibitor (EHT-1864), or incubated with Abs (BAI3 [R&D Systems, MAB39651] or CD9 [BD Biosciences]) for 30 min at 37° C., 8.5% CO2 prior to the sperm co-incubation. Alternatively, myoblasts were fixed with 4% PFA for 20 min and washed several times. Calcein-AM+ sperm (250,000 sperm/well) were added and incubated for 4 h at 37° C., 8.5% CO2. The blocking agents were also present during the co-incubation except for Cytochalasin D, which was used only during the preincubation to avoid affecting the sperm. Sperm were pretreated with 50 μg/ml GST or 50 μg/ml GST-BAI1-TSR for 30 min and then added to the myoblasts. C2C12 myoblasts with shRNA-mediated Elmo2 knockdown have been described previously^25. After the 4 h co-incubation, myoblasts were washed, stained with Hoechst and mounted. Cells were analyzed the same day and 6-8 fields/well were photographed using the Axio Imager 2 with Apotome (Zeiss). Image J cell counter plugin software was used to quantitate nuclei number. The fusion index was calculated as the percentage of Calcein AM^+ myoblasts in the experimental group normalized to the control untreated cells.

RAC1 in ZP-free oocytes = assay: Sperm DNA decondensation assay with RAC1 inhibitor; format: cell-based, mouse; conditions: 80 μM, oocytes preincubated 1-2 h, inhibitor present during 1 h insemination
Procedure: To evaluate the role of RAC1, ZP-free oocytes were prepared as described above, loaded with 10 μg/ml DAPI (BioRad) for 20 min at 37° C., 5% CO2, and washed several times in TYH+BSA 3. Twenty oocytes, either untreated or previously incubated with RAC1 inhibitor (80 μM, EHT-1864, Sigma) for 1-2 h were inseminated with 1000 capacitated sperm for 1 h in 20 μl drops of TYH+BSA medium at 37° C., 5% CO2. RAC1 inhibitor was also present the fertilization steps. After 3 washes, oocytes were fixed in 0.25% glutaraldehyde and 0.1% paraformaldehyde for 20 min at room temperature, washed and mounted. The percentage of oocytes with DAPI^+ decondensed sperm nuclei (typically 1-2/oocyte) was evaluated by microscopy.

ZP-free oocytes = assay: In vitro fertilization assay, competition with soluble head group of PtdSer; format: cell-based, mouse; conditions: 1 mM, ZP-free oocytes with capacitated sperm for 1 h, 2-cell embryos after overnight incubation
Procedure: In vitro fertilization (IVF) assays. IVF was performed as previously described^68. Briefly, 4-5 week old female mice were super-ovulated by intraperitoneal injections of 5 IU of pregnant mare serum gonadotropin (PMSG, Prospec) and 5 IU of human chorionic gonadotropin (hCG, Sigma) 48 hours (h) later. Metaphase II oocytes were recovered 13 h after hCG, and were: 1) directly used as cumulus oocyte complexes (COC), 2) freed from cumulus cells by a brief incubation with 3 mg/ml hyaluronidase (Sigma) in 0.01% poly vinyl alcohol (PVA)/FHM medium (EMD Millipore). These oocytes were labeled as Zona pellucida (ZP)-intact oocytes; or 3) freed from cumulus cells and ZP using Tyrode's solution (Sigma) (ZP-free oocytes). Sperm were collected from the cauda epididymides of adult (>10 week-old) wild-type male mice and capacitated for 90 min in TYH+BSA medium (described above, Sperm staining section). All the incubations were performed in medium drops under paraffin oil (Sigma) at 37° C., 5% CO2 atmosphere. To evaluate the role of PtdSer exposed on sperm, cumulus oocyte complexes (n=30-60) were inseminated with 2-4×10^4 sperm capacitated for 60-90 min in TYH+BSA (in most of the experiments) or in TYH+MBCD^67 (in the experiment to test the effect of Annexin V in fertilization, FIG. 1K). During the last 30 min of capacitation, sperm were incubated with 10 μg/ml Annexin V (Ebiosciences), 50 μg/ml GST or 50 μg/ml GST-BAI1-TSR. After co-culture of oocytes and sperm in 100 μl drops of high calcium human tubal fluid (HTF) supplemented with 1 mM reduced glutathione (GSH) medium for 4 hours^67, eggs were washed several times and transferred to KSOM medium (EMD Millipore). The percentage of 2-cell embryos (fertilized eggs) was determined at 24 hours post insemination. […] After washes and an overnight incubation the percentage of 2-cell embryos was evaluated.

[2] = annexin V for PS; cited from earlier work

## BAI1-TSR: soluble extracellular fragment of the PtdSer recognition receptor BAI1 (residues 202-585) fused to glutathione-S-transferase; SEQ ID NOs: 1 and 2
PtdSer exposed on sperm; sperm incubated with 50 μg/ml GST-BAI1-TSR
  effect on fertilization (2-cell embryos): significantly reduced fertilization
sperm
  progressive motility of the sperm: not affected
sperm; listed as GST-BAI1-TSR
  progressive motility of the sperm: No significant differences
[1]
  binding of carboxylate modified beads to oocytes: significantly decreased
C2C12 myoblasts
  sperm:myoblast fusion (Calcein-AM+ myoblasts): significantly decreased the fusion

## GST: glutathione-S-transferase control protein, SEQ ID NO: 1 [reference compound]
sperm
  progressive motility of the sperm: No significant differences

## O=c1cc(CN2CCOCC2)occ1OCCCCCSc1ccnc2cc(C(F)(F)F)ccc12 [EHT-1864, reference compound]
sperm; sperm incubated with EHT-1864 alone under the assay conditions
  sperm motility: no reduction in the motility
RAC1 in ZP-free oocytes
  number of oocytes with decondensed sperm DNA: significant reduction
C2C12 myoblasts
  sperm:myoblast fusion (Calcein-AM+ myoblasts): potently blocked
  DiI+ myoblasts (transfer of the dye DiI from the sperm to the myoblasts): blocked

## N[C@@H](COP(=O)(O)O)C(=O)O [Phospho-L-Serine, O-Phospho-L-Serine]
ZP-free oocytes
  effect on fertilization (2-cell embryos): significant reduction in fertilization
ZP-free oocytes; Mus musculus, Oocyte, read-out: partial inhibition of fertilization
  inhibition at 1000 µM: 30 to 40%

## paraformaldehyde
C2C12 myoblasts
  sperm:myoblast fusion (Calcein-AM+ myoblasts): abrogated
  DiI+ myoblasts (transfer of the dye DiI from the sperm to the myoblasts): blocked

## Annexin V: PtdSer-binding protein reagent (Ebiosciences) used to mask PtdSer on sperm; highest affinity of the three blocking agents
PtdSer exposed on sperm; 10 μg/ml Annexin V on capacitated caudal sperm, in three out of four independent experiments
  reduction in fertilization: > 85%
sperm
  progressive motility of the sperm: not affected; also recorded: No significant differences
[2]
  Kd: 6.6 nM

## N[C@H](COP(=O)(O)O)C(=O)O [Phospho-D-Serine, O-Phospho-D-Serine]
ZP-free oocytes
  effect on fertilization (2-cell embryos): did not inhibit fertilization

## C=C1[C@@H](C)[C@H]2[C@H](Cc3ccccc3)NC(=O)[C@]23[C@H](OC(C)=O)/C=C/[C@@](C)(O)C(=O)[C@@H](C)C/C=C/[C@H]3[C@@H]1O [cytochalasin D, reference compound]
C2C12 myoblasts
  sperm:myoblast fusion (Calcein-AM+ myoblasts): abrogated
